In publication PMC7902330, “Pharmacokinetic study of traditional Japanese Kampo medicine shimotsuto used to treat gynecological diseases in rats” (Journal of Natural Medicines, 2021):
Like-named read-outs stand apart in the source and are kept apart here.

Legend:
[1] = Pharmacokinetics of ingredients in rat plasma after oral administration of shimotsuto (targeted LC–MS/MS); format: in vivo
Excerpt: The plasma levels of nine ingredients were quantified using quantitative (targeted) analysis. Among them, seven ingredients (catalpol, paeoniflorin, albiflorin, senkyunolide A, butylphthalide, ferulic acid, and ligustilide) are candidate active ingredients in shimotsuto (Table 1). Two ingredients (bergapten and 8-debenzoylpaeoniflorin) are shimotsuto ingredients which were detected and identified in shimotsuto-treated rat plasma using nontargeted LC–HRMS analysis. The nine ingredients were quantified by collecting plasma samples at 0–24 h after shimotsuto administration, pretreating with the following procedures, and then analyzing by targeted LC–MS/MS using selected reaction-monitoring mode. The LC–MS/MS system was composed of a triple quadruple MS (TripleQuad6500; SCIEX, Framingham, MA, USA) and an Agilent 1290 Infinity LC system (Agilent Technologies, Santa Clara, CA, USA). For highly sensitive and selective quantitative (targeted) analysis of each compound, we preliminarily examined optimal pretreatment and analytical LC–MS/MS methods (e.g., MS parameters and LC conditions).
For quantification of catalpol, paeoniflorin, albiflorin, ferulic acid, and senkyunolide A in plasma, 100 µL of plasma sample was mixed with 20 µL of methanol (or working solution) and 20 µL of internal standard (niflumic acid or swertiamarin) and pretreated by deproteinization using 500 µL of acetonitrile. […] Finally, the dried residue was dissolved in 60 µL of the specific HPLC mobile phase used for analysis and then a 10 μL aliquot was injected into the LC–MS/MS system.
For quantification of ligustilide and butylphthalide in plasma, 200 µL of plasma sample was mixed with 40 µL of methanol (or working solution) and 40 µL of internal standard (imperatorin) and centrifuged at 15000×g for 10 min at 4 °C, the whole volume of supernatant was collected and subsequently pretreated by solid-phase extraction using Oasis HLB Extraction Cartridge (Waters, Milford, MA, USA). The acetonitrile elutes were collected and then dried under a steam of nitrogen gas. Finally, the dried residue was dissolved in 70 µL of the specific HPLC mobile phase and injected 20 µL into the LC–MS/MS system.
For quantification of bergapten in plasma, 100 µL of plasma sample was mixed with 20 µL of methanol (or working solution) and 20 µL of internal standard (niflumic acid) and pretreated by solid-phase extraction using an Oasis HLB 96-well µElution plate. Next, the mixied elutes of acetonitrile and isopropyl alcohol (1:1, v/v) were collected and then dried under a steam of nitrogen gas. Finally, the dried residue was dissolved in 60 µL of the specific HPLC mobile phase and injected 10 µL into the LC–MS/MS system.
For quantification of 8-debenzoylpaeoniflorin in plasma, 100 µL of plasma sample was mixed with 20 µL of methanol (or working solution) and 20 µL of internal standard (niflumic acid) and pretreated by liquid–liquid extraction using 500 µL of ethyl acetate. […] The dried residue was dissolved in 60 µL of the specific HPLC mobile phase and injected 10 µL into the LC–MS/MS system.
In addition, pharmacokinetic parameters of the shimotsuto ingredients detected in the plasma, such as the maximum concentration (Cmax) and area under the plasma level–time curve (AUC0−last), were calculated by noncompartmental moment analysis using Phoenix WinNonlin software (Certara L.P., St. Louis, MO, USA).

human TRPA1 = molecular target: T1, human TRPA1 (Homo sapiens, UniProt O75762); experiment: Ca2+ influx assay for TRP channel agonistic activity in T-REx-293 cells; format: cell-based; conditions: for activation at 10 µM: T-REx-293, 10 µmol/L test ingredient, positive control 20 µmol/L allyl isothiocyanate, read-out: % Activation compared to positive control, TRPA1; for Activation of TRPA1 (in words): TRP stable expression cell lines
T1 construct: The full length of each of human transient receptor potential ankyrin 1 (TRPA1); expressed in transfected cells
T1 sequence (O75762 whole entry): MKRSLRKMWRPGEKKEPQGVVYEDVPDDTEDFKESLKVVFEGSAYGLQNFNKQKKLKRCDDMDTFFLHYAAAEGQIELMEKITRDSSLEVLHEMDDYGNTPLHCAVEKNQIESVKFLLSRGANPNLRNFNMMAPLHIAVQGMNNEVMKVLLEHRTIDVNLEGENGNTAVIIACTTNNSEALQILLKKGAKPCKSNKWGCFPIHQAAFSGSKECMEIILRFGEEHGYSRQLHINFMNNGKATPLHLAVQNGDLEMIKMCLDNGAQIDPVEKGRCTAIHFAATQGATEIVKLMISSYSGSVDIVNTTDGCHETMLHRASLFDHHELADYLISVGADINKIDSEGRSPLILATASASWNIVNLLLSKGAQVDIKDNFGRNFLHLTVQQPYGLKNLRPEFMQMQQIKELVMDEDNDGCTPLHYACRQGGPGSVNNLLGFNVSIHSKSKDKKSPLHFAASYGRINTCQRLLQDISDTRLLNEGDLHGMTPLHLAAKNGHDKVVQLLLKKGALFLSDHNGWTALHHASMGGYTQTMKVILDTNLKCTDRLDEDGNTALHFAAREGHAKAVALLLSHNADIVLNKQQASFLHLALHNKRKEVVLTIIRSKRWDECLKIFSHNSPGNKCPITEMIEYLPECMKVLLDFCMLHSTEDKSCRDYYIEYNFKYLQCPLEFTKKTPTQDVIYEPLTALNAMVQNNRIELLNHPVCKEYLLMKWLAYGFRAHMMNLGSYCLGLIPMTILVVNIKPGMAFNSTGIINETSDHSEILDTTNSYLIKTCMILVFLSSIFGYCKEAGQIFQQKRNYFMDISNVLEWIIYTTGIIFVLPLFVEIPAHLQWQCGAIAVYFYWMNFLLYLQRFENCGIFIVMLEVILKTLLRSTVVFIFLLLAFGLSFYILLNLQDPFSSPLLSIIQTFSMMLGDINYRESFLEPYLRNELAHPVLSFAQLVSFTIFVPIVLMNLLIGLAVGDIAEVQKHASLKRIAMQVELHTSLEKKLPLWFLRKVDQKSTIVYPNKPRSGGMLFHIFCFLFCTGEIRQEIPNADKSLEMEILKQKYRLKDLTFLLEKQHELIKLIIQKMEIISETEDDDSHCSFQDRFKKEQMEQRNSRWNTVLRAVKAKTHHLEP
Excerpt: (§1) The full length of each of human transient receptor potential ankyrin 1 (TRPA1), transient receptor potential cation channel subfamily V member 1 (TRPV1), transient receptor potential cation channel subfamily V member 4 (TRPV4), and transient receptor potential cation channel subfamily M member 8 (TRPM8) coding region was introduced into a pcDNA4/TO vector (Thermo Fisher Scientific, Waltham, MA, USA) and transfected into T-REx-293 cells (Thermo Fisher Scientific) to obtain stable cell lines expressing human TRPA1, TRPV1, TRPV4, and TRPM8. Next, the cells were cultured in Dulbecco’s Modified Eagle Medium containing 10% fetal bovine serum (FBS), 4 mM L-glutamine, and penicillin/streptomycin.
(§2) First, cells were suspended in culture medium with 1 µg/mL of tetracycline and seeded on a poly-D-lysine-coated 96-well plate at a density of 2.5 × 10^4 cells/well overnight. Next, the cells were used for Ca^2+ influx assay, as described previously with minor modifications, using a FLIPR Calcium 5 Assay Kit (Molecular Devices, San Jose, CA, USA). Briefly, cells were incubated in 80 µL of a Ca^2+-chelating dye dissolved in assay buffer at pH 7.4 (Hanks’ Balanced Salt Solution containing 20 mmol/L of 4-(2-hydroxyethyl)-1-piperazineethanesulfonic acid [HEPES]) for 30 min at room temperature. Next, the plates were assayed in a FlexStation 3 microplate reader (Molecular Devices). The fluorescence intensity was traced entirely for 80 s, and the fluorescence baseline was measured 20 s before application of 20 µL of the test compound (final concentration = 10 µmol/L). The response was expressed as percentage activation as follows:
(§3) Relative fluorescence units (RFU) (% activation) = ([RFUmax − RFUbaseline]/RFUbaseline) × 100
(§4) The activity of each test compound against TRPA1, TRPV1, TRPV4, and TRPM8 was represented as the relative enhancement of the Ca^2+ influx of each positive control as follows: 20 µmol/L of allyl isothiocyanate (TRPA1 agonist), 2 µmol/L of capsaicin (TRPV1 agonist), 4 µmol/L of GSK1016790A (TRPV4 agonist), and 20 µmol/L of icilin (TRPM8 agonist). The dose–response curve was fitted to the sigmoidal dose–response equation (Top: maximum response of each compound), and EC50 was calculated using GraphPad prism 7 software (GraphPad, San Diego, CA, USA).
(§5) Calcium ion influx into TRPA1-, TRPV1-, TRPV4-, or TRPM8-expressing T-REx-293 cells was measured to evaluate the agonistic effect of shimotsuto ingredients on TRP channels. The action of 10 µmol/L of each test ingredient was represented as the relative enhancement of the Ca^2+ influx of each positive control, indicated as follows: 20 µmol/L each of allyl isothiocyanate (TRPA1 agonist), 2 µmol/L capsaicin (TRPV1 agonist), 4 µmol/L GSK1016790A (TRPV4 agonist), and 20 µmol/L icilin (TRPM8 agonist). Dose–response tests of shimotsuto ingredients against TRPA1 were performed to calculate EC50.

human TRPM8 = molecular target: T2, human TRPM8 (Homo sapiens, UniProt Q7Z2W7); experiment: as above; format: cell-based; conditions: 10 µmol/L test ingredient, positive control 20 µmol/L icilin, read-out: % Activation compared to positive control, TRPM8
T2 construct: The full length of each of human transient receptor potential ankyrin 1 (TRPA1); expressed in transfected cells
T2 sequence (Q7Z2W7 whole entry): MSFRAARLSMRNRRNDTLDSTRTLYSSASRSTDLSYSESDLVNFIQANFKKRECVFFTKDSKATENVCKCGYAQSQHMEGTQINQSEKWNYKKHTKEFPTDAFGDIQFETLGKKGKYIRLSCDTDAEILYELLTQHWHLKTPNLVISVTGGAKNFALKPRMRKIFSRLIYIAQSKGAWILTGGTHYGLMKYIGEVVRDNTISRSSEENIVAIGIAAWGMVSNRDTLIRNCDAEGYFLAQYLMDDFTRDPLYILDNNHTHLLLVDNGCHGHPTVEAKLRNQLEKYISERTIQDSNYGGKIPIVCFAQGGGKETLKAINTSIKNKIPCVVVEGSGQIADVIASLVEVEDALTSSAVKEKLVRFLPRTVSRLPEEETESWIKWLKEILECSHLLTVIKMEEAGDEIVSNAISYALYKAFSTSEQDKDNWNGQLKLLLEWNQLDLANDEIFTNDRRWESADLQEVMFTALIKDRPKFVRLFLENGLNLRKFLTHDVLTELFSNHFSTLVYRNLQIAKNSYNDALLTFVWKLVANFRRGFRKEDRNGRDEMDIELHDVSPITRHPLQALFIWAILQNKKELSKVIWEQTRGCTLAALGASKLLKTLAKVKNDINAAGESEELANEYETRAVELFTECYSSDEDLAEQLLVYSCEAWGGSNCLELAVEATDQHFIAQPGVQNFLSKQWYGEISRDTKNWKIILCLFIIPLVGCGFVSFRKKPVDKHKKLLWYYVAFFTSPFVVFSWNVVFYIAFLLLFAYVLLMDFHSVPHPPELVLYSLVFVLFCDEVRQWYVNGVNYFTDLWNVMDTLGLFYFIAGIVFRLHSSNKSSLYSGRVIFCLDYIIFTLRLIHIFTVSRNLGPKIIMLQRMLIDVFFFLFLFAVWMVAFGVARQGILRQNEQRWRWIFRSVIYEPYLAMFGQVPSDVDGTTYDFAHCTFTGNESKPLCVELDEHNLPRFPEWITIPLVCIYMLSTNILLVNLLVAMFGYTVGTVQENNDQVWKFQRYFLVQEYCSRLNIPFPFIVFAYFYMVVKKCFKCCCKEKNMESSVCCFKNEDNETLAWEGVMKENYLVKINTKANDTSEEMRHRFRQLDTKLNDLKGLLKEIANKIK
Excerpt: as §1, §2, §3, §4, §5

human TRPV1 = molecular target: T3, human TRPV1 (Homo sapiens, UniProt Q8NER1); experiment: as above; format: cell-based; conditions: 10 µmol/L test ingredient, positive control 2 µmol/L capsaicin, read-out: % Activation compared to positive control, TRPV1
T3 construct: The full length of each of human transient receptor potential ankyrin 1 (TRPA1), transient receptor potential cation channel subfamily V member 1 (TRPV1); expressed in transfected cells
T3 sequence (Q8NER1 whole entry): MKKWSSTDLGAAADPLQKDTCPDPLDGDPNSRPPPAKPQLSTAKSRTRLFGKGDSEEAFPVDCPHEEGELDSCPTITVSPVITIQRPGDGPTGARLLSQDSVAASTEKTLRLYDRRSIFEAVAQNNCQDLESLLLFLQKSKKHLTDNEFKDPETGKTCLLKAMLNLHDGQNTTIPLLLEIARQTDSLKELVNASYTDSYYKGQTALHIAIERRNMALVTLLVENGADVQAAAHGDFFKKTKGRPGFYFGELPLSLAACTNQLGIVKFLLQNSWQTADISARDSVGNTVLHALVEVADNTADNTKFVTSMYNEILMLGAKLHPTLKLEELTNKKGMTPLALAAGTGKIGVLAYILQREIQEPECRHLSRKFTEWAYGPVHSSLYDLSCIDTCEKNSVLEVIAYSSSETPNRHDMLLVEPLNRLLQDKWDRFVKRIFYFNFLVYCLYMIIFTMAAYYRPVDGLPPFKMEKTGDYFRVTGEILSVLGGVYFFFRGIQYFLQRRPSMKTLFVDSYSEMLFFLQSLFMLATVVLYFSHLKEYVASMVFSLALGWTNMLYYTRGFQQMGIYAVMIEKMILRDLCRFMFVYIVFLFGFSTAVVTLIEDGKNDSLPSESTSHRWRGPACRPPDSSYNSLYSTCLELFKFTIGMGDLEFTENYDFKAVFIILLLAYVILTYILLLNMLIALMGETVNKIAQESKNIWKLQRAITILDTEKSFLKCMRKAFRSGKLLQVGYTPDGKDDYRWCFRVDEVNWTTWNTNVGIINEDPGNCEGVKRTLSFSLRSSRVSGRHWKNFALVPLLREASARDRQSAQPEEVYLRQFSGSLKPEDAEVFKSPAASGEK
Excerpt: as §1, §2, §3, §4, §5

human TRPV4 = molecular target: T4, human TRPV4 (Homo sapiens, UniProt Q9HBA0); experiment: as above; format: cell-based; conditions: 10 µmol/L test ingredient, positive control 4 µmol/L GSK1016790A, read-out: % Activation compared to positive control, TRPV4
T4 construct: The full length of each of human transient receptor potential ankyrin 1 (TRPA1); expressed in transfected cells
T4 sequence (Q9HBA0 whole entry): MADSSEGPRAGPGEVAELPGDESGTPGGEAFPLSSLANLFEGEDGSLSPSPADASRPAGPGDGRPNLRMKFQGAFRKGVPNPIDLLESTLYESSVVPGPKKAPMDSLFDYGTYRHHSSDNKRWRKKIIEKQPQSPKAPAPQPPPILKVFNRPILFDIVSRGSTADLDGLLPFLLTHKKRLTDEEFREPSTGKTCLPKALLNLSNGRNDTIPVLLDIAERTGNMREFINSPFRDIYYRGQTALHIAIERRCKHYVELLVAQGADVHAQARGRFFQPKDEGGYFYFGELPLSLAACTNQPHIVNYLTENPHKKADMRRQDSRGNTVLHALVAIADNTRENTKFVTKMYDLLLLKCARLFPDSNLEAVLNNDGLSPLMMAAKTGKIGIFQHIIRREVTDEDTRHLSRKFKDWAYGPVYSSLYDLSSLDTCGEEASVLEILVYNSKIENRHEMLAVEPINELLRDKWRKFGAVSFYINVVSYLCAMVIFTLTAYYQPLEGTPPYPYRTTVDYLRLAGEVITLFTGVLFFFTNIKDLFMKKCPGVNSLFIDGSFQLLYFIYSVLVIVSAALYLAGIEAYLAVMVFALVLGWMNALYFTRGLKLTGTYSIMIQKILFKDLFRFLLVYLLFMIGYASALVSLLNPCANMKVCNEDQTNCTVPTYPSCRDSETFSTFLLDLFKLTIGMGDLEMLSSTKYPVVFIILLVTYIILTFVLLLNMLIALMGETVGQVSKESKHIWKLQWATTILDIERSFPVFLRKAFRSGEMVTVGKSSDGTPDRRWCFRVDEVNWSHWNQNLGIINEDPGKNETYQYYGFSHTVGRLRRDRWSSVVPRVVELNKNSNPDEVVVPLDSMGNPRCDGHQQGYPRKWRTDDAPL
Excerpt: as §1, §2, §3, §4, §5

[2] = Nontargeted LC–HRMS detection of ingredients in rat plasma after oral administration of each constituent crude drug; conditions: n = 2
Protocol: The rats were fasted for 16 h and then orally administered Angelicae Acutilobae Radix, Paeoniae Radix, Rehmanniae Radix, or Cnidii Rhizoma extract powder suspended in distilled water at a dosage of 1 g/10 mL/kg. […] The two sampling points (1 and 10 h) were set to extensively explore both fast- and slow-absorbing ingredients. The blood samples were centrifuged at 1700×g for 15 min at 4 °C to obtain plasma, and the plasma samples were stored at less than − 75 °C until LC–HRMS analysis.
Before LC–HRMS analysis, the plasma samples were deproteinized using methanol as follows: 100 µL of plasma sample was mixed with 700 µL of methanol and then vortexed for 2 min. After centrifugation at 7000×g for 5 min at 4 °C, the supernatant was collected and then dried using a centrifugal evaporator, dissolved the dried residue in 80 μL of the initial mobile phase of LC, and recentrifuged at 7000×g for 5 min at 4 °C. Finally, a 5 μL aliquot of the supernatant was injected into the LC–HRMS system and analyzed in both positive and negative ion modes.
We interfaced the Acquity Ultra-Performance Liquid Chromatography System (Waters) to a Xevo G2-XS quadrupole time-of-flight MS system (Waters) equipped with an electrospray ionization probe in sensitivity mode. All ions within m/z = 50–1000 were acquired by the MS^E method (data-independent acquisition). […] We created two acquisition functions with different collision energies: a low-energy function with 6 eV collision energy and a high-energy function with 15–40 eV collision energy. The mass spectrometer resolution was set at more than 20,000.

[3] = cited from earlier work
[4] = set-up: method as in PMID 8932691; conditions: cited from earlier work
blood viscosity = test system: blood viscosity; set-up: method as in PMID 28299338; conditions: rat model; cited from earlier work
[5] = oral Angelicae Acutilobae Radix 1 g/kg

Compound	activation at 10 µM (human TRPA1) [%]	activation at 10 µM (human TRPM8) [%]	activation at 10 µM (human TRPV1) [%]	activation at 10 µM (human TRPV4) [%]	AUC(0-t) ([1]; rat, in vivo, po, 1 g/kg) [ng·h/mL]	Cmax ([1]; rat, in vivo, po, 1 g/kg) [ng/mL]	Tmax ([1]; rat, in vivo, po, 1 g/kg) [min]	Activation of TRPA1 (in words) (human TRPA1)	also measured
COc1c2ccoc2cc2oc(=O)ccc12 [Bergapten]	3	0	0	0	–	–	–	–	AUC(0-t) ([1]; in vivo, rat plasma, oral shimotsuto 1 g/kg, from mean concentration (n = 3) per time point, read-out: AUC0−last): 0.0105 ng·h/mL; Cmax ([1]; in vivo, rat plasma, oral shimotsuto 1 g/kg, from mean concentration (n = 3) per time point, read-out: Cmax): 0.0837 ng/mL; Tmax ([1]; in vivo, rat plasma, oral shimotsuto 1 g/kg, from mean concentration (n = 3) per time point, read-out: tmax): 15 min; Plasma collected 1 h postadministration (detection) [2, 5]: + (The number of + signs represent the sample number in which the ingredient was detected in the plasma after administration of each constituent crude drug of shimotsuto (n = 2 per sampling time per crude drug)); Plasma collected 10 h postadministration (detection) [2, 5]: Not detected
CCCC[C@@H]1OC(=O)C2=C1CCC=C2 [Senkyunolide A]	86	-1	1	0	8.04	28.9	15	potently activated	EC50 (human TRPA1): 1000 nM; Pharmacological action related to improvement of blood and the circulatory system ([3]; ref 8): Vasorelaxation; Pharmacological action related to improvement of blood and the circulatory system ([3]; ref 13): vasorelaxation and increased blood flow effects
C[C@@]12C[C@@]3(O)O[C@@H](O1)[C@]1(COC(=O)c4ccccc4)[C@H]3C[C@@]12O[C@@H]1O[C@H](CO)[C@@H](O)[C@H](O)[C@H]1O [Paeoniflorin]	1	0	-1	0	83.6	36.3	–	–	Tmax ([1]; rat plasma, oral shimotsuto 1 g/kg, from mean concentration (n = 3) per time point): 30 min; half-life ([1]; rat, in vivo, po, 1 g/kg): 88.8 min; Cumulative biliary excretion ([4]; after oral administration of paeoniflorin, within 24 h): 1.3 % of the dose; Bioavailability ([4]; in rats): low; Pharmacological action related to improvement of blood and the circulatory system (blood viscosity): Reduction of blood viscosity via antithrombotic effect in rat model [12]
CC12CC(O)C3CC1(OC1OC(CO)C(O)C(O)C1O)C3(COC(=O)c1ccccc1)C(=O)O2 (stereo not shown) [Albiflorin]	1	1	0	-1	24.2	6.34	30	–	half-life ([1]; rat, in vivo, po, 1 g/kg): 163 min; Pharmacological action related to improvement of blood and the circulatory system (blood viscosity): Reduction of blood viscosity via antithrombotic effect in rat model [12]
CC12CC3(O)OC(O1)C1(CO)C3CC21OC1OC(CO)C(O)C(O)C1O (stereo not shown) [8-Debenzoylpaeoniflorin]	30	2	1	1	811	466	60	slightly activated	Cmax compared to paeoniflorin ([1]; rat, in vivo): approximately tenfold; Plasma collected 1 h postadministration (detection) ([2]; oral Paeoniae Radix 1 g/kg): ++ (The number of + signs represent the sample number in which the ingredient was detected in the plasma after administration of each constituent crude drug of shimotsuto (n = 2 per sampling time per crude drug)); Plasma collected 10 h postadministration (detection) ([2]; oral Paeoniae Radix 1 g/kg): + (The number of + signs represent the sample number in which the ingredient was detected in the plasma after administration of each constituent crude drug of shimotsuto (n = 2 per sampling time per crude drug))
CCCCC1OC(=O)c2ccccc21 (stereo not shown) [Butylphthalide]	73	-1	-1	0	4.12	13.7	30	potently activated	EC50 (human TRPA1; dose–response test, Ca2+ influx, read-out: EC50 against TRPA1): 3200 nM; Pharmacological action related to improvement of blood and the circulatory system ([3]; ref 9): Vasodilation; Pharmacological action related to improvement of blood and the circulatory system ([3]; ref 13): vasorelaxation and increased blood flow effects
COc1cc(/C=C/C(=O)O)ccc1O [Ferulic acid]	3	5	0	0	75	12.4	15	–	Pharmacological action related to improvement of blood and the circulatory system ([3]; ref 14): Vasodilation effect [14]
